Tested on: children with physician-diagnosed asthma
Assay: Randomized placebo-controlled study of daily montelukast on LTE4-related albuterol usage in schoolchildren with asthma
Format: in vivo, human
Conditions: for Change in Albuterol Usage Per IQR Increase in LTE4, Relative difference (treatment vs baseline interval) / Change in Albuterol Usage Per IQR Increase in LTE4, Treatment Interval: montelukast group
From the text: Twenty-eight children, aged 6 to 15, who had physician-diagnosed asthma were followed over a 5-month period (Nov. 15, 2005 to Apr. 15, 2006). Children were excluded from the study if they were already receiving montelukast. Many of the children are classified as urban poor. The children attended the same school.
After an initial two and a half month period (baseline interval), children were randomized to receive daily montelukast (montelukast group) or placebo (placebo group) for the final two and a half months of the study (treatment interval). Study medication and placebo were administered in a single-blinded fashion by school nurses or study personnel on school days and by parents (who were blinded) on non-school-days. Children were otherwise followed by their regular physicians who were free to adjust medications as needed (these medication changes were recorded and controlled for in the statistical analysis).
Each child was given a Doser (Meditrak, Hudson, M S) for use at school throughout the 5-month period. The Doser is an electronic counter that records the total number of (albuterol) activations in each 24-hour period. At study initiation, parents completed a questionnaire describing baseline demographic and asthma severity characteristics. School nurses recorded all other medication changes during the study.
Sixteen urine samples were collected from each child on 8 consecutive schooldays during the baseline interval and 8 consecutive schooldays during the treatment interval. Urine was collected at approximately the same time each day (10:00 AM to 12:00 PM). Collection was staggered in groups of 10 children so that urine monitoring occurred daily throughout the 5 months of the study.
Baseline model: A Poisson regression model employing generalized estimating equations (GEE) (Dobson A J. An introduction to generalized linear models, 2nd edition, Chapman & Hall/CRC 2001) was used to determine the strength of association between albuterol medication use (modeled as the outcome) and LTE4 levels, at various lag times (in days) between the variables. An indicator for Friday (=1 if response was on Friday, =0 otherwise) was included because children had regular exercise activities from Monday through Thursday, but not on Friday. […] The same day and up to a 4-day lag of LTE4 was tested for, in separate models.
Experiment model: Daily albuterol use was modeled as a function of LTE4, group (montelukast and placebo), interval (baseline and treatment), and all interactions of these variables, using Poisson regression and employing GEE. Using the baseline model as a guide, 3-day moving averages of LTE4 (days 0-2 and 1-3 prior to current day) were used. Other covariates in the model included daily indicators for Friday, prednisone use, special exercise days during the treatment interval, and interval-level indictors of ICS and LABA use.
Effect modifier models: These models were fit for the subjects randomized to montelukast only. The model had LTE4, interval, the effect modifier of interest, and all interactions of these variables. Otherwise, the model was similar to the ‘Experiment model’ described above. The effect modifiers tested included gender, ICS and LABA use, mean LTE4, mean FENO, height, mean cotinine, and mean LTE4 to FENO ratio.
The interquartile range (IQR) for LTE4 was used to standardize slope estimates; this statistic was determined by first calculating the IQR for each subject, and then taking the median across subjects. For all models described above, a first order autoregressive working covariance structure was used to model repeated measures within subjects over time. SAS software, version 9.1 (PROC GENMOD) was used to fit the data to the models described above. […]

[1] = Group 1 meds: No Meds or ICS, 1-3 day moving average
[2] = Group 2 meds: ICS and LABA, 1-3 day moving average
[3] = LTE4:FENO Ratio 1st quartile estimate
[4] = LTE4:FENO Ratio 3rd quartile estimate
[5] = mean FENO 1st quartile estimate
[6] = mean FENO 3rd quartile estimate
[7] = mean LTE4 1st quartile estimate
[8] = mean LTE4 3rd quartile estimate
[9] = mean urine Cotinine 1st quartile estimate
[10] = mean urine Cotinine 3rd quartile estimate

With `CC(C)(O)c1ccccc1CC[C@@H](SCC1(CC(=O)O)CC1)c1cccc(/C=C/c2ccc3ccc(Cl)cc3n2)c1` [Montelukast, montelukast] the “Change in Albuterol Usage per IQR of LTE4, Relative Diff.” value (Female (Group 2 gender)) was −26.7%, the “Change in Albuterol Usage per IQR of LTE4, Treatment interval” value (Female (Group 2 gender)) was −11.5% and the “Change in Albuterol Usage per IQR of LTE4, Relative Diff.” value [1] was −22.0%. The “Change in Albuterol Usage per IQR of LTE4, Treatment interval” value [1] was −10.5%, the “Change in Albuterol Usage per IQR of LTE4, Relative Diff.” value [2] was −6.6% and the “Change in Albuterol Usage per IQR of LTE4, Treatment interval” value [2] was −1.0%. For the same compound, the “Change in Albuterol Usage per IQR of LTE4, Relative Diff.” value (Height 1st quartile estimate) was −16.4%, the “Change in Albuterol Usage per IQR of LTE4, Treatment interval” value (Height 1st quartile estimate) was −2.4% and the “Change in Albuterol Usage per IQR of LTE4, Relative Diff.” value (Height 3rd quartile estimate) was −16.4%. For the same compound, the “Change in Albuterol Usage per IQR of LTE4, Treatment interval” value (Height 3rd quartile estimate) was −0.3%, the “Change in Albuterol Usage per IQR of LTE4, Relative Diff.” value [3] was 1.8% and the “Change in Albuterol Usage per IQR of LTE4, Treatment interval” value [3] was −0.8%. For the same compound, the “Change in Albuterol Usage per IQR of LTE4, Relative Diff.” value [4] was −17.6%, the “Change in Albuterol Usage per IQR of LTE4, Treatment interval” value [4] was −1.3% and the “Change in Albuterol Usage per IQR of LTE4, Relative Diff.” value (Male (Group 1 gender)) was −7.9%. For the same compound, the “Change in Albuterol Usage per IQR of LTE4, Treatment interval” value (Male (Group 1 gender)) was −0.5%, the “Change in Albuterol Usage per IQR of LTE4, Relative Diff.” value [5] was −10.4% and the “Change in Albuterol Usage per IQR of LTE4, Treatment interval” value [5] was −0.1%. For the same compound, the “Change in Albuterol Usage per IQR of LTE4, Relative Diff.” value [6] was −0.6%, the “Change in Albuterol Usage per IQR of LTE4, Treatment interval” value [6] was −6.4% and the “Change in Albuterol Usage per IQR of LTE4, Relative Diff.” value [7] was −13.4%. For the same compound, the “Change in Albuterol Usage per IQR of LTE4, Treatment interval” value [7] was −1.5%, the “Change in Albuterol Usage per IQR of LTE4, Relative Diff.” value [8] was −10.9% and the “Change in Albuterol Usage per IQR of LTE4, Treatment interval” value [8] was −4.8%. For the same compound, the “Change in Albuterol Usage per IQR of LTE4, Relative Diff.” value [9] was −8.2%, the “Change in Albuterol Usage per IQR of LTE4, Treatment interval” value [9] was −4.0% and the “Change in Albuterol Usage per IQR of LTE4, Relative Diff.” value [10] was −6.6%. The “Change in Albuterol Usage per IQR of LTE4, Treatment interval” value [10] was −3.6%, the “Change in Albuterol Usage Per IQR Increase in LTE4, Relative difference (treatment vs baseline interval)” value (Lag 0-2) was −10.8% and the “Change in Albuterol Usage Per IQR Increase in LTE4, Treatment Interval” value (Lag 0-2 (Day 0-2 moving average of LTE4)) was −3.0%. For the same compound, the “Change in Albuterol Usage Per IQR Increase in LTE4, Relative difference (treatment vs baseline interval)” value (Lag 1-3) was −13.0% and the “Change in Albuterol Usage Per IQR Increase in LTE4, Treatment Interval” value (Lag 1-3 (Day 1-3 moving average of LTE4)) was −3.2%.

— US9383374B2, “Methods to determine susceptibility to treatment with leukotriene modifiers” (NATIONAL JEWISH HEALTH, priority 2008, dated 2016)
